Measurements reported in article PMC12720774, “Detergents alter the stability and lipid binding properties of the CD1d immunoreceptor” (Protein Science : A Publication of the Protein Society, 2025).
“And” between values parts separate entries of the source, which are not always exact repeats. Equal values may be shown once. Where a name gives a salt, the structure may show the parent alone. Read-outs that look alike come from different tables or passages of the source.

Key:
[1] = target: T1, recombinant human CD1d ectodomain/β2m complex (hCD1d) (Homo sapiens, UniProt P15813); assay: Intrinsic tryptophan fluorescence (ITF) binding assay
T1 construct: TEV protease cleavage site ENLYFQS (C); BirA biotinylation site (C); His7 (C); made in house; host or cells: TurboCHO cells (GenScript)
T1 sequence (P15813 whole entry, looked up, the tested form may be a part, one chain of several): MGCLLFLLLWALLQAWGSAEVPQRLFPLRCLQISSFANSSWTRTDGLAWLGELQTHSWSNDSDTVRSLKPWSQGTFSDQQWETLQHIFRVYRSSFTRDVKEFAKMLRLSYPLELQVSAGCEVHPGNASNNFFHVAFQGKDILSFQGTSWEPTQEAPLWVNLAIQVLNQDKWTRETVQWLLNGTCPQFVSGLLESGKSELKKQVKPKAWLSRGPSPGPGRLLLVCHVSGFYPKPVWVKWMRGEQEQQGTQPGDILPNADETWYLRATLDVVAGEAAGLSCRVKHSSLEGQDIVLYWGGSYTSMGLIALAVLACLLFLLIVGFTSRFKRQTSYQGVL
Procedure: (§1) For ITF assays, the concentration of hCD1d was kept constant, and intrinsic Trp fluorescence (excitation at 285 nm, emission at 335 nm) was measured as a function of increasing detergent concentration (Fossum et al., [2023]) (Figure S2). The change in relative fluorescence intensity (F − F 0/F 0) provides an indication of binding. […] This was due to limited detergent solubility and decreased hCD1d stability in the presence of a large excess of detergent (see below). […] SDS was the exception, for which Trp fluorescence of hCD1d decreased with added detergent. This could indicate a unique conformational change or destabilization of the protein.
(§2) ITF spectra were recorded from 300 to 500 nm using a Horiba FL3‐21 Fluorometer with the excitation wavelength of 285 nm and excitation/emission slits of 6.2 nm. Fluorescence spectra of 50 to 100 nM hCD1d were acquired in the absence and presence of detergents in 1X PBS pH 7.4 at 25°C. Prior to data acquisition, hCD1d and detergent or lipid samples were incubated at 37°C overnight (~12 h) to simulate in vitro and in vivo loading conditions. […] For 18:1 LPC experiments, fluorescence spectra of 100 nM hCD1d were acquired in the absence and presence of 18:1 LPC in 1X PBS pH 7.4 at 25°C. […] For all ITF experiments, the change in fluorescence signal (F − F 0/F 0) was determined at 335 nm. Three replicates were performed, and data are presented as the mean ± standard deviation (n = 3). K D values were fitted with non‐linear regression in GraphPad Prism v10.1.

[2] = target: T2, recombinant human CD1d ectodomain/β2m complex (hCD1d) (Homo sapiens, UniProt P15813+P61769); assay: as above
T2 construct: TEV protease cleavage site ENLYFQS (C); BirA biotinylation site (C); His7 (C); made in house; host or cells: TurboCHO cells (GenScript)
T2 sequence (P61769+P15813 fused): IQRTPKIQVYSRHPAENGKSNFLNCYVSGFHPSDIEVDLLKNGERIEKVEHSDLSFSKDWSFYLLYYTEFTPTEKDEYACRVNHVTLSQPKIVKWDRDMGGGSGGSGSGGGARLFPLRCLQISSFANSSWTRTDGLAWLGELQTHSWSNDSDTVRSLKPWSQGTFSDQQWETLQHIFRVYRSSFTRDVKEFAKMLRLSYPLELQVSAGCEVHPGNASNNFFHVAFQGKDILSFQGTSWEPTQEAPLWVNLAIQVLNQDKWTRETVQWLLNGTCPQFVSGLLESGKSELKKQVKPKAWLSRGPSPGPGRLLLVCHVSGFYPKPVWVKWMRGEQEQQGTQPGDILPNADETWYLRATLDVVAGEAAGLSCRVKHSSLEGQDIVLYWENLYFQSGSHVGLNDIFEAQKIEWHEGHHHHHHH
Procedure: as §1, §2

[3] = approximate, cited from earlier work
hCD1d = hCD1d (Homo sapiens, UniProt P15813+P61769); assay: Nano differential scanning fluorimetry (nanoDSF) thermal stability; format: binding; set-up: TEV protease cleavage site ENLYFQS (C); BirA biotinylation site (C); His7 (C); made in house; host or cells: TurboCHO cells (GenScript); conditions: for ΔTm aveage: Figure 5C, nanoDSF, hCD1d with detergent; for ΔT m (NanoDSF): T m difference between hCD1d in the absence and presence of 1000 μM detergent, 1 μM hCD1d; for ΔT m, detergent class summary: approximate; for detergent concentration at which hCD1d appeared to unfold: disappearance of inflection point in ∂(F350/F330)/∂T
Sequence of hCD1d (P61769+P15813 fused): as above
Source text: We next sought to probe the ability of each detergent to influence the thermal stability of hCD1d. NanoDSF has been previously applied to measure lipid/detergent‐induced thermal stability changes in target proteins (Cecchetti et al., [2021]; Kotov et al., [2019]), but has not yet been applied to ligand binding to CD1. NanoDSF measures the ITF ratio (F 350 nm/F 330 nm) of proteins as a function of temperature to extract thermodynamic parameters. Given that ligand binding typically shifts the melting temperature of proteins, the effect of a ligand on protein stability can be approximated with the ΔT m value (the difference in T m with and without excess ligand) (Cecchetti et al., [2021]; Kotov et al., [2019]). We found all detergents tested to destabilize hCD1d, albeit to different degrees, with ΔT m values ranging from −0.8 to −14.2°C (Figures 4, S4, and Table 1).
Nano differential scanning fluorometry (nanoDSF) was performed using a Prometheus NT.48 (NanoTemper Technologies). Purified hCD1d at 1 μM in 1X PBS pH 7.4 was loaded into nanoDSF grade standard capillaries (NanoTemper Technologies) and exposed to temperatures ranging from 20 to 95°C with a thermal ramping rate of 1°C/min. Excitation power was set to 50%. The ratio of intrinsic fluorescence emission (F 350 nm/F 330 nm) was monitored. Melting temperatures (T m) were obtained from fitting the first derivative plots in the Prometheus NT.48 Software. The experiments were performed in triplicate, and data are presented as the mean ± standard deviation (n = 3).
For experiments with most detergents, prior to data acquisition, hCD1d and detergent or lipid samples were incubated at 37°C overnight (~12 h) to simulate in vitro and in vivo loading conditions. […] For 18:1 LPC experiments: nanoDSF spectra were acquired in the absence and presence of 18:1 LPC in 1X PBS pH 7.4 at 25°C.

[4] = ITF - Kd (uM) average, Figure 5A, detergent binding to hCD1d
[5] = K D (ITF), detergent with 100 nM hCD1d, 25°C, 1X PBS pH 7.4, apparent
[6] = 0.001 M detergent, 100 nM hCD1d
[7] = weight/volume, ref Anatrace catalogue

Compound	Kd [1, 4] [µM]	Kd [1, 5] [µM]	F-F0/F0 (rep 1-3) ([2]; 3.0518e-8 M detergent)	F-F0/F0 (rep 1-3) ([2]; 3.125e-5 M detergent)	F-F0/F0 (rep 1-3) ([2]; 6.25e-5 M detergent)	F-F0/F0 (rep 1-3) ([2]; 0.000125 M detergent)	F-F0/F0 (rep 1-3) ([2]; 0.00025 M detergent)	F-F0/F0 (rep 1-3) ([2]; 0.0005 M detergent)	F-F0/F0 (rep 1-3) [2, 6]	ΔTm aveage (hCD1d) [°C]	ΔT m (NanoDSF) (hCD1d) [°C]	ΔT m, detergent class summary (hCD1d) [°C]	detergent concentration at which hCD1d appeared to unfold (hCD1d) [µM]	CMC ([3]; ref Anatrace catalogue) [µM]	CMC [3, 7] [%]	also measured
CCCCCCCCCCCCCCCC[N+](C)(C)C [CTAB, hexadecyltrimethylammonium bromide]	41.5	41.5 ± 6.5	0	0.613 and 0.517 and 0.672	0.966 and 1.08 and 1.22	1.45 and 1.3 and 1.29	1.44 and 1.52 and 1.46	1.55 and 1.65 and 1.44	1.83 and 1.56 and 1.71	-14.17	−14.2 ± 0.8	−12 to −15	> 200			CMC ([3]; ref Sigma Aldrich catalogue): 920 µM; CMC ([3]; weight/volume, ref Sigma Aldrich catalogue): 0.033%
CCCCCCCCCCCCOS(=O)(=O)O [SDS, sodium dodecyl sulfate]	35.5	35.5 ± 22.6	0							-13.07	−13.1 ± 0.7	−12 to −15	> 200	1990	0.057	
Tween 20			0	0.321 and 0.2971 and 0.409	0.469 and 0.4298 and 0.387	0.384 and 0.3339 and 0.39	0.511 and 0.3507 and 0.554	0.462 and 0.3634 and 0.631		-8.33	-8.3 ± 0.2	−8 to −10		59	0.0072	F-F0/F0 (rep 1-3) ([2]; 7.8125e-6 M detergent): 0.397 and 0.3783 and 0.411; F-F0/F0 (rep 1-3) ([2]; 1.5625e-5 M detergent): 0.321 and 0.292 and 0.428; Kd ([2]; Figure 5A, detergent binding to hCD1d, read-out: ITF - Kd (uM) average): 4.9 µM; Kd ([2]; detergent with 100 nM hCD1d, 25°C, 1X PBS pH 7.4, apparent, read-out: K D (ITF)): 4.9 ± 0.7 µM; ΔT m (nanoDSF), lipid/hCD1d (hCD1d; absence vs maximum concentration of detergent, 1 μM endo/hCD1d (Figure S10)): ≈ −8.3 °C
C[C@H](CCC(=O)NCCC[N+](C)(C)CCCS(=O)(=O)[O-])[C@H]1CC[C@H]2[C@@H]3[C@H](O)C[C@@H]4C[C@H](O)CC[C@]4(C)[C@H]3C[C@H](O)[C@]12C [CHAPS, 3‐((3‐cholamidopropyl) dimethylammonio)‐1‐propanesulfonate]	269		0						0.1904 and 0.2276 and 0.116	-1.3	−1.3 ± 0.4	−1 to −2		8000	0.49	binding to hCD1d by ITF (in words) [2]: observable binding; Kd ([2]; read-out: K D (ITF), detergent with 100 nM hCD1d, 25°C, 1X PBS pH 7.4, apparent): < 400 µM
